Measured values reported in a melting point compilation (Tetko et al.; mined from patent text by program, amines drawn as free bases though some values may be those of a salt).

Compound	melting point
CC(C)N(C(C)C)C(C)CN1C(=O)/C(=N/NC(N)=O)c2ccccc21 (stereo not drawn)	201 to 204 °C
CCOCn1c(C(N)=O)c(OC(C)C)c2cc(OC)ccc21	110 to 112 °C
COC(=O)n1nnnc1-c1cnc2ccccn2c1=O	182 to 183 °C
CCOC(=O)Cc1[nH]c(C(=O)c2ccccc2)c(C)c1C(=O)OCC	152 to 154 °C
CC(c1oc2ccccc2c(=O)c1-c1cccc(F)c1)n1nc(-c2cc3ccccc3s2)c2c(N)ncnc21 (stereo not drawn)	242 to 245 °C
N#CN(Cc1ccccc1)c1ccccn1	65 to 66 °C
Fc1ccc2c(c1)Cc1cccnc1-2	80 to 84 °C
CC(C)(CCc1ccc(OCCO)cc1)NCC(O)c1ccccc1 (stereo not drawn)	118 to 120 °C
COC[C@@H](OC)[C@@H](OC)[C@H](OC)[C@H](CN(C)C(=O)c1ccc2n1Cc1ccccc1N(C(=O)c1ccc(C3=CCCCC3)c(C)c1)C2)OC	68 to 83 °C
O=C(O)C(=O)c1csc2ccccc12	92 to 93 °C
CCCCCCCCCCCCCCCCCCCCCC(=O)OCC1CC1	44 °C
CSC1C2=C(CCCC2)C(=O)N1c1ccc(Cl)cc1F (stereo not drawn)	97 to 98 °C
Cc1cc(SCc2ccc(OCc3ccc(C(F)(F)F)cc3)cc2)c(Cl)cc1OCC(=O)O	142 to 143 °C
CC(=O)N[C@@H](Cc1ccc(Oc2sc(C(N)=O)c3c2-c2c(cnn2C)CC3)cc1)C(=O)N1CCOCC1	139 to 140 °C
CN(C)CCCC(C(N)=O)c1ccccc1-c1ccccc1 (stereo not drawn)	108 to 110 °C
ClCc1cccc(/C=C/c2cc(-c3ccsc3)cs2)c1	137 to 138 °C
O=C(O)CCC(NC(=O)C=Cc1ccco1)C(=O)O (stereo not drawn)	166 to 170 °C
N#Cc1nc(-c2ccccc2)c[nH]1	151 to 153 °C
Cc1cccnc1-n1ccnc1S(=O)Cc1ccccc1N (stereo not drawn)	112 to 114 °C
CC(N=C(O)C(Cl)=C(Cl)C(=O)O)c1ccccc1 (stereo not drawn)	62 to 65 °C
N=C(N)c1ccc(-c2ccc(-c3ccc(C(=N)N)cn3)o2)cc1	232 °C
O=C1NS(=O)(=O)CCC1c1ccc([N+](=O)[O-])cc1F (stereo not drawn)	218 to 219 °C
Cc1cnc(CNC(=O)c2sc(-n3cnn(Cc4ccc(F)cc4)c3=O)cc2C)cn1	189 to 191 °C
CC(=O)NC1(c2ccc(Cl)cc2)c2ccc(Cl)cc2-c2ncncc21 (stereo not drawn)	238 to 241 °C
CCc1c(Sc2cc(C)cc(C)c2)n(CC2=CCC(CO)C2)c(=O)[nH]c1=O (stereo not drawn)	57 to 60 °C
O=C(O)c1cnn2ccc(-c3ccc(Cl)cc3)nc12	309 to 311 °C

Compound	melting point
CN1C(=O)C(Cc2ccccc2)Oc2ccc(N)cc21 (stereo not drawn)	82 to 85 °C
C=CCn1c(Oc2cnn(-c3c(Cl)cc(C(F)(F)F)cc3Cl)n2)nc(C#N)c1C#N	121 to 131 °C
COC(=O)Cc1cnc(-c2ccccc2)n1Cc1ccc([N+](=O)[O-])cc1	113 to 116 °C
COC(=O)C1(OC)CC(O)C(NC(C)=O)C(C(O)C(O)CO)O1 (stereo not drawn)	161 to 167 °C
Cn1ccn(CC#CCn2ccnc2)c1=O	106 to 109 °C
Cc1ccc2c(C(=O)C(F)(F)F)c[nH]c2c1	216 to 218 °C
Cc1nc2c(-c3cccc(N4CCN(CCO)CC4)c3)cnn2c(N)c1-c1ccc(F)c(F)c1	172 to 174 °C
COC(=O)c1cccc(NC(=O)c2ccc(OC)c([N+](=O)[O-])c2)c1	233 to 235 °C
COCOc1ccc(C=CC(=O)C=Cc2ccc(OCOC)c(OC)c2)cc1OC	81 to 82 °C
Cc1ccc2c(=O)cc(C(N)=O)oc2c1	> 300 °C
N#CC(C#N)=C1N(CCCN2CCC(F)(F)C2)CCN1CCCN1CCC(F)(F)C1	122 to 124 °C
CCCCCCCCCCOC(=O)c1nc(-c2ccc(Cl)cc2)c(F)c(N)c1Cl	62 to 63 °C
CC(=O)Cc1ccc(CC2SC(=N)NC2=O)cc1 (stereo not drawn)	196 to 198 °C
CC(C)CN1C(=O)[C@@H](CC(=O)O)O[C@H](c2ccccc2OC(C)C)c2cc(Cl)ccc21 (relative stereo)	146 to 149 °C
O=C(CBr)c1ccc(OCCO)cc1	78 °C
CC(C)(C)c1ccc(C(=O)NP(N)(N)=O)cc1	232 °C
C=C(CC)CNc1cccc(-c2ccnc3c(C(=O)c4cccs4)cnn23)c1	79 to 82 °C
CCOC(=O)C1(C(=O)OCC)Cc2ccc(OC)c(Cl)c2O1	97 to 99 °C
CCC(C)C(NC(=O)OCc1ccccc1)C(=O)NC(C(=O)Nc1n[nH]c(=S)s1)C(C)C (stereo not drawn)	197 to 198 °C
Cc1cc(C(=N)NO)cn2cc(-c3cccc(-c4ccc(C(=N)NO)cc4)c3)nc12	193 to 195 °C
COC(=O)C(C)n1nnc2ccc(OCc3ccccc3)cc21 (stereo not drawn)	88 to 91.5 °C
ClCc1ccc2cc(Cl)ccc2c1	107 to 110 °C
CC(C)(O)c1ccc(CCl)cc1	101 to 103 °C
CCOc1cc2c3c(c4cc(OCC)c(OCC)cc4c2cc1OCC)C(=O)C=CC3=O	188 to 190 °C
O=C1c2ccccc2COc2ccc(CCCOC(=O)C(F)(F)F)cc21	40.5 to 41 °C
CC=C1CCC2C3CCC4CC(O)C(OCC)CC4(C)C3C(=O)CC12C (stereo not drawn)	172 to 178 °C

Compound	melting point
O=C(CC(=O)c1cc(O)ccc1O)c1ccc(OCc2ccccc2)c(OCc2ccccc2)c1	196 to 197 °C
O=C1NCC(c2ccc(F)cc2)N1CCCCS (stereo not drawn)	102 to 104 °C
CCCCCCCCCC(=O)Oc1ccc([N+](=O)[O-])cc1OC(=O)CCCCCCCCC	45 to 47 °C
Cn1c(CC#N)ccc1C(=O)c1cccs1	132 to 133 °C
CN1C(=O)Cn2c(nn(Cc3ccccc3)c2=O)-c2cc(Cl)ccc21	120 to 122 °C
COc1ccc(C(Cl)Sc2ccc(Cl)cc2)cc1 (stereo not drawn)	76 to 77 °C
Cc1oc(-c2ccccc2)nc1COc1ccc(COc2cccnc2CC#N)cc1	138 to 139 °C
CCc1cc(Oc2ccc(C(F)(F)F)cc2[N+](=O)[O-])nn1C(=O)NC	89 to 91 °C
COc1ccc(C=CC(=O)c2cccc(OC)c2OC)cc1F	79.3 to 80.2 °C
N#Cc1cc2c(cn1)CCCC2	56 to 59 °C
C=CCOC(=O)C(C(=O)OCC=C)=C1SC(O)C(O)S1 (stereo not drawn)	81.2 °C
O=C(NCCCCO)c1c([N+](=O)[O-])ccc(N(CCBr)CCBr)c1[N+](=O)[O-]	114 to 117 °C
CCCc1nc2c(N)nc3ccccc3c2n1CC1(O)CCN(C)CC1	241 to 242 °C
COc1ccc(C2=NN(C3CCNCC3)C(=O)C(C)(C)C2)cc1OC	126 to 128 °C
CS(=O)(=O)c1ccc2ccc(C(=O)O)cc2c1	273 to 274 °C
COc1ccc(N2CCN(c3ccc([N+](=O)[O-])cc3)CC2)cc1	195 °C
COc1c(N2C[C@H]3CCOC[C@@]3(N)C2)c(F)cc2c(=O)c(C(=O)O)cn([C@@H]3C[C@@H]3F)c12	132 to 134 °C
O=C(O)c1ccc(OCCCCCCc2cccc(O)c2O)cc1	170 to 172 °C
O=c1sc(CO)c(C(F)(F)F)n1-c1ccccc1	135 °C
O=C1N(CCO)c2ccccc2C(c2ccccc2)N1C1CCN(Cc2cccc(CO)c2)CC1 (stereo not drawn)	185 to 187 °C
O=C(Nc1ccc(Br)cn1)[NH+]([O-])C(=O)c1c(Cl)cccc1Cl (stereo not drawn)	230 to 235 °C
OCCc1ccc2sccc2c1	56 to 57 °C
CCc1nc2c(N)cccc2o1	46 °C
COc1ccc2oc(C(C)N(O)C(N)=O)cc2c1 (stereo not drawn)	149 to 151 °C
CCCCCCP1C(O)C(O)P(CCCCCC)C(O)C1O (stereo not drawn)	140 to 147 °C
CCN(Cc1ccc(Cl)cc1Cl)C(=O)n1oc(C)c(Cl)c1=O	80.5 to 81.5 °C

Compound	melting point
O=C1c2ccccc2C(=O)N1CCCOc1ccncc1	81 to 82 °C
O=C(c1cccs1)c1cnn2c(-c3cccc(NC(=O)C4CC4)c3)ccnc12	191 to 192 °C
CCOCOc1cccc(C(CC#N)N2Cc3c(Cl)ccc(NC(=O)C4CC4)c3C2=O)c1 (stereo not drawn)	200 to 202 °C
COc1ccc(NC(=O)CCCCC(=O)Cc2ccccc2)cc1	131 to 132 °C
O=c1c2ccccc2oc2cc(-c3nnn[nH]3)ccc12	296 °C
COC(=O)c1cc2ccc(C(=O)NC(CO[Si](C)(C)C(C)(C)C)CO[Si](C)(C)C(C)(C)C)cc2[nH]1	127 to 129 °C
CC1(C)Cc2nc(C3CCCC3)c(C(=O)c3ccc(C(F)(F)F)cc3)c(-c3ccsc3)c2C(O)C1 (stereo not drawn)	179 to 182 °C
CCOc1ccc(N(C)C)cc1-c1ncc(C(=O)O)c(=O)[nH]1	187 to 196 °C
CCCCCCc1cc2c(cc1OCCCC(=O)O)C(=O)CC2	88 °C
NC(=NO)c1ccccc1C(F)(F)F	74 to 76 °C
Nc1cc(C(=O)OCCN2CCCCC2)c2oc(-c3ccccc3)cc2c1	126 to 128 °C
Cc1nc(C(O)COc2ccc(CC3SC(=O)NC3=O)cc2)c(C)o1 (stereo not drawn)	223 to 224 °C
Cc1onc(NS(=O)(=O)c2cccs2)c1Br	156 to 158 °C
CNC(=O)c1ccc(C(=O)O)cc1N	215 to 217 °C
CN(C(=O)c1cc2c(cn1)[nH]c1ccccc12)c1ccccc1	237 to 240 °C
COC(=O)c1ccccc1NC(=O)NCc1ccccc1	140 to 141 °C
CCCn1nc2c(N)nc3ncccc3c2c1CC(C)(C)C#N	249 to 252 °C
Cc1sc(NC(=O)OC(C)(C)C)c(NC(=O)OC(C)(C)C)c1C#N	> 300 °C
COc1ccc(CN2C(=O)C(C)(c3cc(N(C)C(=O)CN(C)C)ccc3Cl)c3cc(Cl)ccc32)c(OC)c1 (stereo not drawn)	104 °C
CCOC(=O)c1oc2ccc([N+](=O)[O-])cc2c1OC(C)C	122 °C
CC(C)(C)c1cc(C(=O)Nc2nc(C(=O)O)cs2)cc(C(C)(C)C)c1O	291 to 293 °C
CN1C(=O)N(C)C(Cc2c[nH]c3ccccc23)C1CCc1cc(C(F)(F)F)cc(C(F)(F)F)c1 (stereo not drawn)	202 to 205 °C
CS(=O)(=O)Nc1ccc(NCC(=O)N2CCC(Cc3ccc(Cl)cc3)CC2)cc1	70 °C
CC(C(N)=O)C(=O)Nc1ccc(OCc2cccc(F)c2)cc1 (stereo not drawn)	206 °C
CCOC(=O)C1=C(C)NC(C(Nc2ccccc2C(=O)O)SCc2ccccc2)=C(C(=O)OCC)C1c1cccc([N+](=O)[O-])c1 (stereo not drawn)	105 to 107 °C
